Data: US20180000085A1, “USE OF PICOLINAMIDE COMPOUNDS WITH FUNGICIDAL ACTIVITY” (DOW AGROSCIENCES LLC, priority 2014, published 2018)

Assays:
Assay type in all cases: in vivo
Phakopsora pachyrhizi = assay: Asian soybean rust (PHAKPA) disease control; details: 25 ppm; for PHAKPA disease control, 1DP: 1 Day Protectant; for PHAKPA disease control, 3DC: 3 Day Curative
Zymoseptoria tritici = assay: Leaf blotch of wheat (SEPTTR) disease control on wheat seedlings; details: low volume application, 125.1 g/H; for SEPTTR 1DP, LV activity at 125.1 g/H (% Control rating): 1 Day Protectant; for SEPTTR 3DC, LV activity at 125.1 g/H (% Control rating): 3 Day Curative
Puccinia triticina = assay: Wheat brown rust (PUCCRT) disease control on wheat seedlings; details: low volume application, 125.1 g/H; for PUCCRT 1DP, LV activity at 125.1 g/H (% Control rating): 1 Day Protectant; for PUCCRT 3DC, LV activity at 125.1 g/H (% Control rating): 3 Day Curative

Row | SMILES | PHAKPA disease control, 1DP (Phakopsora pachyrhizi) | PHAKPA disease control, 3DC (Phakopsora pachyrhizi) | SEPTTR 1DP, LV activity at 125.1 g/H (% Control rating) (Zymoseptoria tritici) | SEPTTR 3DC, LV activity at 125.1 g/H (% Control rating) (Zymoseptoria tritici) | PUCCRT 1DP, LV activity at 125.1 g/H (% Control rating) (Puccinia triticina) | PUCCRT 3DC, LV activity at 125.1 g/H (% Control rating) (Puccinia triticina)
1 | COc1ccnc(C(=O)N[C@@H](C)C(=O)O[C@@H](C)[C@H](Oc2cccc(Cl)c2)C(C)C)c1OCOC(C)=O [Cmpd 561] | A (> 80) | A (> 80) | A (> 80) | A (> 80) | A (> 80) | A (> 80)
2 | COc1ccnc(C(=O)N[C@@H](C)C(=O)O[C@@H](C)[C@H](Oc2ccc(Cl)cc2)C(C)C)c1OCOC(C)=O [Cmpd 563] | A (> 80) | B (≤ 80) | B (≤ 80) | A (> 80) | A (> 80) | A (> 80)
3 | COc1ccnc(C(=O)N[C@@H](C)C(=O)O[C@@H](C)[C@H](Oc2ccc(Cl)cc2)C(C)C)c1OC(C)=O [Cmpd 568] | A (> 80) | B (≤ 80) | B (≤ 80) | A (> 80) | A (> 80) | A (> 80)
4 | COc1ccnc(C(=O)N[C@H](C(=O)O[C@@H](C)[C@H](Oc2cccc(Cl)c2)C(C)C)C(C)C)c1OC(C)=O [Cmpd 569] | A (> 80) | B (≤ 80) | B (≤ 80) | A (> 80) | A (> 80) | A (> 80)
5 | COc1ccnc(C(=O)N[C@@H](C)C(=O)O[C@@H](C)[C@H](Oc2cccc(F)c2)c2ccccc2)c1OC(C)=O [Cmpd 575] | A (> 80) | B (≤ 80) | A (> 80) | A (> 80) | A (> 80) | A (> 80)
6 | CCC(CC)[C@@H](Oc1ccc(Cl)cc1)[C@H](C)OC(=O)[C@H](C)NC(=O)c1nccc(OC)c1OCOC(C)=O [Cmpd 589] | A (> 80) | B (≤ 80) | A (> 80) | A (> 80) | A (> 80) | A (> 80)
7 | CCC(CC)[C@@H](Oc1cc(F)cc(Cl)c1)[C@H](C)OC(=O)[C@H](C)NC(=O)c1nccc(OC)c1OCOC(C)=O [Cmpd 592] | A (> 80) | A (> 80) | A (> 80) | A (> 80) | A (> 80) | A (> 80)
8 | CCC(CC)[C@@H](Oc1ccccc1Cl)[C@H](C)OC(=O)[C@H](C)NC(=O)c1nccc(OC)c1OCOC(C)=O [Cmpd 593] | A (> 80) | B (≤ 80) | A (> 80) | A (> 80) | A (> 80) | A (> 80)
9 | CCC(CC)[C@@H](Oc1cccc(F)c1)[C@H](C)OC(=O)[C@H](C)NC(=O)c1nccc(OC)c1OC(C)=O [Cmpd 597] | A (> 80) | B (≤ 80) | A (> 80) | A (> 80) | A (> 80) | A (> 80)
